The nature of data set [1]: Metabolic stability in mouse liver microsomes assessed as intrinsic clearance. It is filed as ADME, Microsome. To be noted: read-out: CLH. Background: Liver microsomes are a subcellular fraction often used to study metabolism.
The nature of data set [2]: Kinetic solubility of the compound at pH 2. It is filed as physicochemical. The conditions noted are these: buffer, read-out: Kinetic_solubility.
A short description of data set [3]: Metabolic stability in human liver microsomes assessed as intrinsic clearance. Type of data set: ADME, Microsome. To be noted: read-out: CLH.
A short description of data set [4]: Kinetic solubility of the compound at pH 7.4. Type of data set: physicochemical. The conditions noted are these: buffer, read-out: Kinetic_solubility.
A short description of data set [5]: Half life in CD1 mouse plasma at 0.3 mg/kg, iv measured upto 8 hrs. It is filed as ADME, organism-based.
Data set [6] is described as follows: Unbound intrinsic clearance in CD1 mouse plasma at 0.3 mg/kg, iv measured upto 8 hrs. Type of data set: ADME, organism-based. The conditions noted are these: in vivo.
The nature of data set [7]: Oral bioavailability in CD1 mouse at 10 mg/kg measured upto 24 hrs. It is filed as ADME, organism-based. To be noted: in vivo.
The nature of data set [8]: AUCinfinity in CD1 mouse at 10 mg/kg, po measured upto 24 hrs. Type of data set: ADME, organism-based. Set-up: route oral, dose 10 mg/kg, time <=24. To be noted: in vivo.

We go through 12 compounds from ChEMBL document CHEMBL5036313, “Discovery of Novel, Potent Inhibitors of Hydroxy Acid Oxidase 1 (HAO1) Using DNA-Encoded Chemical Library Screening” (J Med Chem, 2021).

The structures appear in SMILES notation. Converted amounts (≈) assume the structure as drawn.

For the compound `CC(C)c1csc(-c2cccc(CNc3ccc4[nH]nc(C(=O)O)c4c3)c2O)n1`, the CLint scaled amounted to 8 mL/min/kg in data set [1] and 10 mL/min/kg in data set [3]. The solubility kinetic in data set [2] stood at 97 µM (≈ 39.6 µg/mL); in data set [4], 102 µM (≈ 41.7 µg/mL).
`CC(C)c1noc(-c2cccc(CNc3ccc4[nH]nc(C(=O)O)c4c3)c2O)n1` had a half-life in data set [5] of 0.4 h. The compound also yielded a CL free in data set [6] of 5436 mL/min/kg. Moreover, the bioavailability in data set [7] is 2%. Also, the results for the CLint scaled in data set [1] and in data set [3] were 38.1 mL/min/kg and 2.4 mL/min/kg, respectively. In addition, the solubility kinetic stood at 11 µM (≈ 4.33 µg/mL) in data set [2] and 227 µM (≈ 89.3 µg/mL) in data set [4]. For the same compound, the AUC(0-inf) in data set [8] came to 0.46 µM·h.
As for `CC(C)c1csc(-c2cccc(CN(C)c3ccc4[nH]nc(C(=O)O)c4c3)c2O)n1`, the CLint scaled in data set [1] was 13 mL/min/kg. The solubility kinetic in data set [2] worked out at 175 µM (≈ 73.9 µg/mL); in data set [4], 6 µM (≈ 2.54 µg/mL).
The like results for `CC(C)c1coc(-c2cccc(CNc3ccc4[nH]nc(C(=O)O)c4c3)c2O)n1` were, in that order, 84 mL/min/kg, 4 µM (≈ 1.57 µg/mL) and 229 µM (≈ 89.9 µg/mL).
For `CN(C)c1noc(-c2cccc(CNc3ccc4[nH]nc(C(=O)O)c4c3)c2)n1`, the CLint scaled in data set [1] amounted to 2.9 mL/min/kg; in data set [3], 0.5 mL/min/kg. For the same compound, the solubility kinetic in data set [2] is 308 µM (≈ 117 µg/mL); in data set [4], 255 µM (≈ 96.5 µg/mL).
As to `Cc1nc(-c2cccc(CN(C)c3ccc4[nH]nc(C(=O)O)c4c3)c2)sc1C`, in data set [1], the CLint scaled turned out to be 45 mL/min/kg. Further, the solubility kinetic in data set [2] was determined as 276 µM (≈ 108 µg/mL); in data set [4], 254 µM (≈ 99.7 µg/mL).
`Cc1csc(-c2cccc(CNc3ccc4[nH]nc(C(=O)O)c4c3)c2O)n1`: the CLint scaled in data set [1] turned out to be 34 mL/min/kg. For the same compound, the solubility kinetic in data set [2] turned out to be 5 µM (≈ 1.9 µg/mL); in data set [4], 44 µM (≈ 16.7 µg/mL).
On to `CN(C)c1noc(-c2cccc(CN(C)c3ccc4[nH]nc(C(=O)O)c4c3)c2O)n1`, for which the half-life in data set [5] was 3.3 h. In data set [6], the CL free is 2444 mL/min/kg. For the same compound, the bioavailability in data set [7] worked out at 4%. Further, the results for the CLint scaled in data set [1] and in data set [3] were 46 mL/min/kg and 14 mL/min/kg, respectively. In addition, the figures for the solubility kinetic in data set [2] and in data set [4] were 16 µM (≈ 6.53 µg/mL) and 135 µM (≈ 55.1 µg/mL), respectively. Also, in data set [8], the AUC(0-inf) was found to be 6.8 µM·h.
As to `CN(C)c1noc(-c2cccc(CNc3cnc4nn[nH]c4c3)c2O)n1`, the CLint scaled in data set [1] worked out at 1210 mL/min/kg; in data set [3], 55.5 mL/min/kg. Moreover, the results for the solubility kinetic in data set [2] and in data set [4] were 0.53 µM (≈ 0.187 µg/mL) and 0.59 µM (≈ 0.208 µg/mL), respectively.
`CN(C)c1noc(-c2cccc(CNc3ccc4[nH]nc(C(=O)O)c4c3)c2O)n1`: in data set [5], the half-life is 1.8 h. In data set [6], this compound showed a CL free of 447 mL/min/kg. The compound also gave a bioavailability in data set [7] of 6%. The CLint scaled in data set [1] is 28.6 mL/min/kg; in data set [3], 6.9 mL/min/kg. Moreover, the results for the solubility kinetic in data set [2] and in data set [4] were 0.4 µM (≈ 0.158 µg/mL) and 157 µM (≈ 61.9 µg/mL), respectively. The compound also had an AUC(0-inf) in data set [8] of 11.2 µM·h.
On to `Cc1nc(-c2cccc(CNc3ccc4[nH]nc(C(=O)O)c4c3)c2O)sc1C`, for which the half-life in data set [5] was 3.3 h. Further, in data set [6], the CL free came out at 4500 mL/min/kg. Besides, the bioavailability in data set [7] came to 19%. Further, the CLint scaled in data set [1] turned out to be 15 mL/min/kg; in data set [3], 21 mL/min/kg. Further, the figures for the solubility kinetic in data set [2] and in data set [4] were 20 µM (≈ 7.89 µg/mL) and 15 µM (≈ 5.92 µg/mL), respectively. The AUC(0-inf) in data set [8] came out at 46.1 µM·h.
Consider `CN(C)c1noc(-c2cccc(CNc3ccc4[nH]nc(C(=O)O)c4c3)c2Cl)n1`, for which the CLint scaled in data set [1] worked out at 12 mL/min/kg; in data set [3] it was 5.8 mL/min/kg. Besides, the solubility kinetic in data set [2] is 7 µM (≈ 2.89 µg/mL); in data set [4], 296 µM (≈ 122 µg/mL).

For orientation: half-life means how long it takes for the measured level to halve. A higher half-life goes with slow loss. In general, bioavailability refers to the share of a dose that reaches the circulation, judged against a reference dose that is usually intravenous. Read a low bioavailability as little systemic uptake. For orientation: AUC(0-inf) means total exposure, with the tail of the curve extrapolated. Low readings indicate less exposure, high ones more exposure.
